Source: patent US20240360113A1, “AMINOARYL-INTEGRIN AGONISTS COMPOUNDS” (Texas Heart Institute, priority 2021, published 2024)

Tests used:
α4β1/VCAM-1 = biological target: T1, α4β1/VCAM-1 (Homo sapiens, UniProt P05556+P13612); assay: Static cell adhesion assay, Jurkat cells on VCAM-1 (VLA-4 agonist activity); assay type: cell-based; details: EC50 relative to THI0349 (average 11 uM) run on the same plate; Jurkat cells, 50% FBS
T1 construct: The Jurkat (VCAM-1 assays) and HSB (ICAM-1 assays) cell lines were obtained from American Type Culture Collection; endogenous in cells; host or cells: Jurkat (ATCC)
In short: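 Calcein-labelled Jurkat cells (2×10^5/well) were added to wells coated with a sub-optimal level of human VCAM-1 (0.5 μg/mL) in PBS, 1 mM MgCl2, 50% FBS with compound in 1% DMSO. After 30 min at 37° C. and washing, adherent-cell fluorescence was read. EC50 was the concentration giving 50% of maximal response.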

αLβ2/ICAM-1 = biological target: T2, αLβ2/ICAM-1 (Homo sapiens, UniProt P05107+P20701); assay: Static cell adhesion assay, HSB cells on ICAM-1 (LFA-1; LAD); assay type: cell-based; details: RFU of compound / RFU of THI0349, both at the same concentration
T2 construct: The Jurkat (VCAM-1 assays) and HSB (ICAM-1 assays) cell lines were obtained from American Type Culture Collection; endogenous in cells; host or cells: HSB (ATCC)
Description: For in vitro cell adhesion assays, compounds were dissolved in DMSO to make a series of stock solutions such that a 1:100 dilution in assay buffer would yield the desired final working concentrations in 1% DMSO (vehicle). Human VCAM-1 and ICAM-1 were purchased from R&D Systems (Minneapolis, MN). The Jurkat (VCAM-1 assays) and HSB (ICAM-1 assays) cell lines were obtained from American Type Culture Collection (Manassas, VA) and were maintained in recommended culture media.
Assays were performed as previously described in Vanderslice et al., (2010), Biochem Biophys Res Commun 400, 619-624; and Vanderslice et al., (2013) J Biol Chem 288, 19414-19428. VCAM-1 or ICAM-1 ligand in 50 μL of 50 mM Tris-HCl (pH 7.4), 150 mM NaCl, (TBS) was added to wells of a 96-well plate and allowed to coat overnight at 4° C. To maximize the window to evaluate agonist activity, a sub-optimal coating concentration of ligand was used, typically 0.5 and 5 μg/mL in 50 μL TBS for VCAM-1 and ICAM-1 respectively. This ligand concentration corresponded approximately to that which would yield <5% adhesion as determined by dose-response curves. Briefly, 2×10^6 cells were labeled for 30 minutes with calcein-AM (Molecular Probes), washed, resuspended in binding buffer, and added to triplicate wells of ligand-coated plates (2×10^5 cells/well) that had been blocked with 2% BSA. After a 30-minute incubation at 37° C., the plates were washed 3 times with binding buffer, the adherent cells were lysed, and fluorescence was measured on a Tecan Safire^2 plate reader. The binding buffer was PBS with 1 mM MgCl2, 50% FBS for α4β1/VCAM-1 assays and PBS with 2 mM MgCl2, 5 mM EGTA, 50% FBS for αLβ2/ICAM-1 assays. EC50 is defined as the concentration of compound required to achieve 50% of the maximal response.
In relation to LAD (Leukocyte Adhesion Deficiency), LFA-1 ratios are determined by dividing the relative fluorescence units (RFU) of each compound at a concentration of 3 μM over that of the reference standard of THI0349, also at 3 μM, (RFU Compound/RFU of THI0349). Log Ps were calculated by either Chemdraw® version 12 (CambridgeSoft) or ACD/Chemsketch® (ACD/Labs).

T1 sequence (P13612 34-1032): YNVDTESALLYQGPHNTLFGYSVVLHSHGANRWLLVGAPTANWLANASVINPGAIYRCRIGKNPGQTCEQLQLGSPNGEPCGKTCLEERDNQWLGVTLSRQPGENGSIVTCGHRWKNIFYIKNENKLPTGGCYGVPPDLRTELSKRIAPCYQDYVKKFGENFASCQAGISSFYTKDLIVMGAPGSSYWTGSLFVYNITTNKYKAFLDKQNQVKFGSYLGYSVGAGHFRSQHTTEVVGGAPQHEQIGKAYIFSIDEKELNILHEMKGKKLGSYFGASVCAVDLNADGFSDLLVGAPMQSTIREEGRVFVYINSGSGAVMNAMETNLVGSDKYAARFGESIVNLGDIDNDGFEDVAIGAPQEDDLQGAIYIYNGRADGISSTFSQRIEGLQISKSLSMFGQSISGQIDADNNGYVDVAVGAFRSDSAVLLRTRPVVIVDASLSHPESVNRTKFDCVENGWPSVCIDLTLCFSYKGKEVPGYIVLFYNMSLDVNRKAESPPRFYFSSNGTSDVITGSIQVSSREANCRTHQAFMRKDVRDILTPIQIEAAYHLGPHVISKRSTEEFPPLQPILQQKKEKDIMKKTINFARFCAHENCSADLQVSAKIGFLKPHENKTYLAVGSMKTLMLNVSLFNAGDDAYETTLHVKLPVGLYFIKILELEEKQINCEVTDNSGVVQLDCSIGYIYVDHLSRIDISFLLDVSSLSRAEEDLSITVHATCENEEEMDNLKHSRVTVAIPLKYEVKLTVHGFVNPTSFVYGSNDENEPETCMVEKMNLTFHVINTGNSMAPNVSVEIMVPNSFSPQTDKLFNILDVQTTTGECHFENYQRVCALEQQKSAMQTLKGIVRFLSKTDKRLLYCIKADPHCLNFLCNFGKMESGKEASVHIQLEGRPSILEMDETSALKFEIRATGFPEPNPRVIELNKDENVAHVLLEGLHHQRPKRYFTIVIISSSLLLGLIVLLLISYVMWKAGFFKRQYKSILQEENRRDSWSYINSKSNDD
T1 sequence (P05556 21-798): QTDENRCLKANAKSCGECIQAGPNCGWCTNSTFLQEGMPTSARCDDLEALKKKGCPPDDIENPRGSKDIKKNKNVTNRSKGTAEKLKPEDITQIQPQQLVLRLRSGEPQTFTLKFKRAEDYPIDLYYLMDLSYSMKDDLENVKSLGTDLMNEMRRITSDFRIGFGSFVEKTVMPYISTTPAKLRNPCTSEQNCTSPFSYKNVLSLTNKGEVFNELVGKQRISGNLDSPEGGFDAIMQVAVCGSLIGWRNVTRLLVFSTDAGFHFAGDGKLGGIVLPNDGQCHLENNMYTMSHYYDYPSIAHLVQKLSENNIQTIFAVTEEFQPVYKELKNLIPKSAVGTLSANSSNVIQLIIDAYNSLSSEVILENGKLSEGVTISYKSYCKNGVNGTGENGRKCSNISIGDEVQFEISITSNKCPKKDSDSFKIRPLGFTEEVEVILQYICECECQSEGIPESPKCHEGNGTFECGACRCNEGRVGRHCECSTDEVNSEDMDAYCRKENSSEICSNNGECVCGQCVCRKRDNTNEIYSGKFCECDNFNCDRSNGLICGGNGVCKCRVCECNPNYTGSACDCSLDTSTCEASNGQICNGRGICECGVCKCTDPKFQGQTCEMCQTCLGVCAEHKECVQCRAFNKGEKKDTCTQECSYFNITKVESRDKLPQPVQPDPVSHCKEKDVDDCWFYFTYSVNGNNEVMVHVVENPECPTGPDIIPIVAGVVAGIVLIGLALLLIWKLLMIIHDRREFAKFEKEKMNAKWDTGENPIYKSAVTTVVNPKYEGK
T2 sequence (P20701 26-1170): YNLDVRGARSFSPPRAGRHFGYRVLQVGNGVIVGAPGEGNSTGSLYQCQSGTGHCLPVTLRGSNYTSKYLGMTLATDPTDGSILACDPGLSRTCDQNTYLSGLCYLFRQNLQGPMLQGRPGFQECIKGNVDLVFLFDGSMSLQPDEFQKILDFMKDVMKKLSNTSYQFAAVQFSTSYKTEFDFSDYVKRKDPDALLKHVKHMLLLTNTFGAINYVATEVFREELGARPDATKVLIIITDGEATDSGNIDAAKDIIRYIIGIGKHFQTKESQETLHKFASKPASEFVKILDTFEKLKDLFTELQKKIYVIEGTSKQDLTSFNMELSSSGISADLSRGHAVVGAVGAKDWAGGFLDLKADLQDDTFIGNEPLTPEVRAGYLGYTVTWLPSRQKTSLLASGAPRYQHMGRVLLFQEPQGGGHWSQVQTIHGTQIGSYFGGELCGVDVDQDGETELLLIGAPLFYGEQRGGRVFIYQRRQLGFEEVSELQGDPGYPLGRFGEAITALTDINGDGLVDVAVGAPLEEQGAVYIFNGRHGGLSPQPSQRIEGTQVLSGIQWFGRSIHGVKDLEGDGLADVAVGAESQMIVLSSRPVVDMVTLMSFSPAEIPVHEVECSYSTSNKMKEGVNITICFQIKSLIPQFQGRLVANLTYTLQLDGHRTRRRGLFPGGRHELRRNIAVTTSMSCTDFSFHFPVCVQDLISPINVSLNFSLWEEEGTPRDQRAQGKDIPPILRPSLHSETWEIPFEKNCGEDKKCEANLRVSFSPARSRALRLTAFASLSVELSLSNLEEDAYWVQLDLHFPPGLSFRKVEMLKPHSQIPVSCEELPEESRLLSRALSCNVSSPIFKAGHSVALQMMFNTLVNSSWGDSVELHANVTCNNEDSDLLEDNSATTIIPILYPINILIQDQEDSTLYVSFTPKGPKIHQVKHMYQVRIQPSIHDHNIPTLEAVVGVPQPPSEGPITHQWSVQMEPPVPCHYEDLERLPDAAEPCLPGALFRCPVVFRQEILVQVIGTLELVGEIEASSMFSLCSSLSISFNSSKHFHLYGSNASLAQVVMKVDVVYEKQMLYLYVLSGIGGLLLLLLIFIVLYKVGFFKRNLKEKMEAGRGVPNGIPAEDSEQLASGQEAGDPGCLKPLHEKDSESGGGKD
T2 sequence (P05107 23-769): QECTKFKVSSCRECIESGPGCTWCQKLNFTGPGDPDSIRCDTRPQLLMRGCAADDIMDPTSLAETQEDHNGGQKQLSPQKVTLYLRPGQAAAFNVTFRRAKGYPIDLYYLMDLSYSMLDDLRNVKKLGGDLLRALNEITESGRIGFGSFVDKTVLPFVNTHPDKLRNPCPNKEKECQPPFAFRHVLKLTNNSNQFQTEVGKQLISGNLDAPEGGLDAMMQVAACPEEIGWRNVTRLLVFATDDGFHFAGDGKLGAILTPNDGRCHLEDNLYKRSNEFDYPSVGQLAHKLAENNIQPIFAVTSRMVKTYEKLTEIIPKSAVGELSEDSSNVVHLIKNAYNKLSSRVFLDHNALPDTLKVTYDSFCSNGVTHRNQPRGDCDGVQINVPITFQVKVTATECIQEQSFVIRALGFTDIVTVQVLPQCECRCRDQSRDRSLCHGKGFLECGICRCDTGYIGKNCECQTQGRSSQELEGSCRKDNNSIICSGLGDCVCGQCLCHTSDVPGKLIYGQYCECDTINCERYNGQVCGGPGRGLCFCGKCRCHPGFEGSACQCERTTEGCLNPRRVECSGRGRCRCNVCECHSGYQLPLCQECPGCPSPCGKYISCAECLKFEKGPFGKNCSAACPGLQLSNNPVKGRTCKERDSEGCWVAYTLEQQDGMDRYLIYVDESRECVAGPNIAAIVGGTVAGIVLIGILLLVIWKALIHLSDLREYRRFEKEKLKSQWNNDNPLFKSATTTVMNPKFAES

SMILES: CCOC(=O)c1csc(N(Cc2cccc(OC)c2)Cc2cccc(OC)c2)n1 [Compound 102, ethyl 2-(bis(3-methoxybenzyl)amino)thiazole-4-carboxylate]
- Group against VCAM (α4β1/VCAM-1): II (Group II is more than twice that of THI0349 but less than five times THI0349's EC50)
- LAD Raw Fluorescence Units against LFA-1; Dose 3 µM; Ratio of raw counts Compound/THI0349 (αLβ2/ICAM-1): 0.5

SMILES: COc1cccc(CN(Cc2cccc(OC)c2)c2nc(COCCN3CCN(C)CC3)cs2)c1 [Compound 66, N,N-bis(3-methoxybenzyl)-4-((2-(4-methylpiperazin-1-yl)ethoxy)methyl)thiazol-2-amine]
- Group against VCAM (α4β1/VCAM-1): II (Group II is more than twice that of THI0349 but less than five times THI0349's EC50)
- LAD Raw Fluorescence Units against LFA-1; Dose 3 µM; Ratio of raw counts Compound/THI0349 (αLβ2/ICAM-1): 0.27

SMILES: COc1cccc(CN(Cc2cccc(OC)c2)c2nc(COCCOc3ccc(Cl)cc3)cs2)c1 [Compound 49, 4-((2-(4-chlorophenoxy)ethoxy)methyl)-N,N-bis(3-methoxybenzyl)thiazol-2-amine]
- Group against VCAM (α4β1/VCAM-1): II (Group II is more than twice that of THI0349 but less than five times THI0349's EC50)
- LAD Raw Fluorescence Units against LFA-1; Dose 3 µM; Ratio of raw counts Compound/THI0349 (αLβ2/ICAM-1): 0.63

SMILES: COc1cccc(CN(Cc2cccc(OC)c2)c2nc(COCCOCCN3CCN(C)CC3)cs2)c1 [Compound 63, N,N-bis(3-methoxybenzyl)-4-((2-(2-(4-methylpiperazin-1-yl)ethoxy)ethoxy)methyl)thiazol-2-amine]
- Group against VCAM (α4β1/VCAM-1): III (Group III more than five times the EC50 of THI0349)
- LAD Raw Fluorescence Units against LFA-1; Dose 3 µM; Ratio of raw counts Compound/THI0349 (αLβ2/ICAM-1): 0.5

SMILES: COc1cccc(CN(Cc2cccc(-n3ccnc3)c2)c2nc(CN3CCOCC3)cs2)c1 [Compound 79, N-(3-(1H-imidazol-1-yl)benzyl)-N-(3-methoxybenzyl)-4-(morpholinomethyl)thiazol-2-amine]
- Group against VCAM (α4β1/VCAM-1): II (Group II is more than twice that of THI0349 but less than five times THI0349's EC50)
- LAD Raw Fluorescence Units against LFA-1; Dose 3 µM; Ratio of raw counts Compound/THI0349 (αLβ2/ICAM-1): 0.32

SMILES: COc1cccc(CN(Cc2ccc3ncccc3c2)c2nc(CN3CCOCC3)cs2)c1 [Compound 76, N-(3-methoxybenzyl)-4-(morpholinomethyl)-N-(quinolin-6-ylmethyl)thiazol-2-amine]
- Group against VCAM (α4β1/VCAM-1): II (Group II is more than twice that of THI0349 but less than five times THI0349's EC50)
- LAD Raw Fluorescence Units against LFA-1; Dose 3 µM; Ratio of raw counts Compound/THI0349 (αLβ2/ICAM-1): 0.31

SMILES: COc1cccc(CN(Cc2cccc(OC)c2)c2cnc(CCOc3ccccc3)o2)c1 [Compound 27, N,N-bis(3-methoxybenzyl)-2-(2-phenoxyethyl)oxazol-5-amine]
- Group against VCAM (α4β1/VCAM-1): III (Group III more than five times the EC50 of THI0349)
- LAD Raw Fluorescence Units against LFA-1; Dose 3 µM; Ratio of raw counts Compound/THI0349 (αLβ2/ICAM-1): 0.28

SMILES: COc1cccc(COCCOCc2csc(N(Cc3cccc(OC)c3)Cc3cccc(OC)c3)n2)c1 [Compound 57, N,N-bis(3-methoxybenzyl)-4-((2-(3-methoxybenzyloxy)ethoxy)methyl)thiazol-2-amine]
- Group against VCAM (α4β1/VCAM-1): I (Group I maintains at least the same potency or better up to more than twice that of the EC50 of THI0349 ran on the same plate)
- LAD Raw Fluorescence Units against LFA-1; Dose 3 µM; Ratio of raw counts Compound/THI0349 (αLβ2/ICAM-1): 0.25

SMILES: COc1cccc(CN(C)c2nc(CN3CCOCC3)cs2)c1 [Compound 111, N-(3-methoxybenzyl)-N-methyl-4-(morpholinomethyl)thiazol-2-amine]
- Group against VCAM (α4β1/VCAM-1): III (Group III more than five times the EC50 of THI0349)
- LAD Raw Fluorescence Units against LFA-1; Dose 3 µM; Ratio of raw counts Compound/THI0349 (αLβ2/ICAM-1): 0.06

SMILES: CCc1nnc(N(Cc2cccc(OC)c2)Cc2cccc(OC)c2)s1 [Compound 94, 5-ethyl-N,N-bis(3-methoxybenzyl)-1,3,4-thiadiazol-2-amine]
- Group against VCAM (α4β1/VCAM-1): III (Group III more than five times the EC50 of THI0349)
- LAD Raw Fluorescence Units against LFA-1; Dose 3 µM; Ratio of raw counts Compound/THI0349 (αLβ2/ICAM-1): 0.29

SMILES: COCCOc1cccc(CN(Cc2cccc(OCCOC)c2)c2nc(C)cs2)c1 [Compound 30, N,N-bis(3-(2-methoxyethoxy)benzyl)-4-methylthiazol-2-amine]
- Group against VCAM (α4β1/VCAM-1): III (Group III more than five times the EC50 of THI0349)
- LAD Raw Fluorescence Units against LFA-1; Dose 3 µM; Ratio of raw counts Compound/THI0349 (αLβ2/ICAM-1): 1.2

SMILES: COc1cccc(CN(Cc2cccc(OC)c2)c2nc(COCCOCc3ccccc3Cl)cs2)c1 [Compound 59, 4-((2-((2-chlorobenzyl)oxy)ethoxy)methyl)-N,N-bis(3-methoxybenzyl)thiazol-2-amine]
- Group against VCAM (α4β1/VCAM-1): II (Group II is more than twice that of THI0349 but less than five times THI0349's EC50)
- LAD Raw Fluorescence Units against LFA-1; Dose 3 µM; Ratio of raw counts Compound/THI0349 (αLβ2/ICAM-1): 1.0

SMILES: COc1cccc(CN(Cc2cccc(OC)c2)c2nc(CN3CCOCC3)co2)c1 [Compound 81, N,N-bis(3-methoxybenzyl)-4-(morpholinomethyl)oxazol-2-amine]
- Group against VCAM (α4β1/VCAM-1): II (Group II is more than twice that of THI0349 but less than five times THI0349's EC50)
- LAD Raw Fluorescence Units against LFA-1; Dose 3 µM; Ratio of raw counts Compound/THI0349 (αLβ2/ICAM-1): 0.36

SMILES: COc1cccc(CN(Cc2ccc(-n3cccn3)cc2)c2nc(CN3CCOCC3)cs2)c1 [Compound 75, N-(4-(1H-pyrazol-1-yl)benzyl)-N-(3-methoxybenzyl)-4-(morpholinomethyl)thiazol-2-amine]
- Group against VCAM (α4β1/VCAM-1): I (Group I maintains at least the same potency or better up to more than twice that of the EC50 of THI0349 ran on the same plate)
- LAD Raw Fluorescence Units against LFA-1; Dose 3 µM; Ratio of raw counts Compound/THI0349 (αLβ2/ICAM-1): 0.59

SMILES: COc1cccc(CN(Cc2cccc(-n3cccn3)c2)c2nc(CN3CCOCC3)cs2)c1 [Compound 80, N-(3-(1H-pyrazol-1-yl)benzyl)-N-(3-methoxybenzyl)-4-(morpholinomethyl)thiazol-2-amine]
- Group against VCAM (α4β1/VCAM-1): I (Group I maintains at least the same potency or better up to more than twice that of the EC50 of THI0349 ran on the same plate)
- LAD Raw Fluorescence Units against LFA-1; Dose 3 µM; Ratio of raw counts Compound/THI0349 (αLβ2/ICAM-1): 0.53

SMILES: COc1ccc(CCCOCc2csc(N(Cc3cccc(OC)c3)Cc3cccc(OC)c3)n2)cc1 [Compound 39, N,N-bis(3-methoxybenzyl)-4-((3-(4-methoxyphenyl)propoxy)methyl)thiazol-2-amine]
- Group against VCAM (α4β1/VCAM-1): III (Group III more than five times the EC50 of THI0349)
- LAD Raw Fluorescence Units against LFA-1; Dose 3 µM; Ratio of raw counts Compound/THI0349 (αLβ2/ICAM-1): 0.23

SMILES: COc1cccc(CN(Cc2cccc(OC)c2)c2nc(COCCO)cs2)c1 [Compound 33, 2-((2-(bis(3-methoxybenzyl)amino)thiazol-4-yl)methoxy)ethanol]
- Group against VCAM (α4β1/VCAM-1): III (Group III more than five times the EC50 of THI0349)
- LAD Raw Fluorescence Units against LFA-1; Dose 3 µM; Ratio of raw counts Compound/THI0349 (αLβ2/ICAM-1): 0.31

SMILES: CCOC(=O)c1csc(N(Cc2cccc(OC)c2)Cc2ccc3[nH]ncc3c2)n1 [Compound 116, ethyl 2-(((1H-indazol-5-yl)methyl)(3-methoxybenzyl)amino)thiazole-4-carboxylate]
- Group against VCAM (α4β1/VCAM-1): III (Group III more than five times the EC50 of THI0349)
- LAD Raw Fluorescence Units against LFA-1; Dose 3 µM; Ratio of raw counts Compound/THI0349 (αLβ2/ICAM-1): 0.09

SMILES: COc1cccc(CN(Cc2cccc(OC)c2)c2nc(COCCN(C)C)cs2)c1 [Compound 82, 4-((2-(dimethylamino)ethoxy)methyl)-N,N-bis(3-methoxybenzyl)thiazol-2-amine]
- Group against VCAM (α4β1/VCAM-1): II (Group II is more than twice that of THI0349 but less than five times THI0349's EC50)
- LAD Raw Fluorescence Units against LFA-1; Dose 3 µM; Ratio of raw counts Compound/THI0349 (αLβ2/ICAM-1): 0.05

SMILES: COC(=O)c1nc(N(Cc2cccc(OC)c2)Cc2cccc(OC)c2)sc1C [Compound 101, methyl 2-(bis(3-methoxybenzyl)amino)-5-methylthiazole-4-carboxylate]
- Group against VCAM (α4β1/VCAM-1): II (Group II is more than twice that of THI0349 but less than five times THI0349's EC50)
- LAD Raw Fluorescence Units against LFA-1; Dose 3 µM; Ratio of raw counts Compound/THI0349 (αLβ2/ICAM-1): 0.03
